The record followed here is US10758513B2, “Modulators of mitochondrial protein import” (THE REGENTS OF THE UNIVERSITY OF CALIFORNIA, priority 2011, dated 2020).

Values after ≈ are worked out from the molar mass of the structure shown. Some results are limits rather than exact numbers.

One series concerns HeLa cells. Description: MTT cell viability assay in HeLa cells (MitoBloCK-6). In kind it is cell-based. As to conditions: 100 μM. The protocol: Measurements for cell viability were made with a MTT based toxicology assay kit (Sigma) as described previously (Hasson et al., 2010). Briefly, HeLa cells were grown in 24-well tissue culture dishes to 80% confluency. Cells were then treated with DMSO or MitoBloCK-6 in complete medium for 12 h and reacted with MTT solution supplement for additional 4 hr as described in manufacturer's protocols. Percentage viability of each cell sample was calculated as: [(absorbance of vehicle treated cells)−(absorbance of MitoBloCK-6 treated cells)/(absorbance of vehicle treated cells)]×100.
In general terms: Tetrazolium dyes change colour on reduction, which living cells bring about.

In the next series the target is T1, Erv1 (Saccharomyces cerevisiae, UniProt P27882).
T1 construct: made in house
T1 sequence (P27882 1-189): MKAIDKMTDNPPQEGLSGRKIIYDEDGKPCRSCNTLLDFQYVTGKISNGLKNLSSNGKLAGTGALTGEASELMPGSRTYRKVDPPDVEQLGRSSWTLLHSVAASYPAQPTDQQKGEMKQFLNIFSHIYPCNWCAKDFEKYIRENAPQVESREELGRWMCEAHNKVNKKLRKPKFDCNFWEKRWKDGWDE
Kind of series: Reconstitution of substrate oxidation with Mia40 and Erv1. In kind it is biochemical, yeast. The conditions noted are these: after three hours; DMSO control approximately 80%. The protocol: (A) Mitochondria from a strain expressing C-terminal histidine-tagged Erv1 were incubated with 50 μM MitoBloCK-6 or 1% DMSO for 30 min at 25° C. followed by solubilization in 1% digitonin buffer. As a control, 100 μg of extract was withdrawn (T), and 500 μg lysate was incubated with Ni+^2-agarose beads. The beads were washed and bound proteins (B) were eluted with SDS-PAGE sample buffer. To test effectiveness of binding, 100 μg of the unbound protein fraction (S) was also included. Proteins were analyzed by immunoblotting with polyclonal antibodies against Mia40, Erv1, and cyt c. […] Oxidized and reduced Tim13 were detected by non-reducing SDS-PAGE and immunoblotting with antibodies against Tim13.
Reconstitution studies with reduced Tim13 were performed as described previously (Tienson et al., 2009). […] H2O2 levels in the reconstitution assays were measured using the Amplex Red Hydrogen Peroxide/Peroxidase Assay kit according to the manufacturer's protocol (Dabir et al., 2007) (Invitrogen). […] The Erv1 or ALR-catalyzed reduction of 02 to H2O2 was measured by a FlexStation plate reader (Molecular Devices) controlled via the SoftMax Pro software package (Molecular Devices) for data acquisition. […]

The next series has as its system Δpdr5Δsnq2 yeast strain. Kind of series: Yeast growth inhibition (MIC50), Δpdr5Δsnq2 strain. Type of series: cell-based. As to conditions: Saccharomyces cerevisiae, ethanol-glycerol media, 25° C., 40 hours. The procedure:
(§1) For MIC50 analysis in the yeast strains, serial dilution of MitoBloCK-6 (0.5 μl) was pinned into assay plate wells containing 50 μl of yeast (Table 2) in rich ethanol-glycerol media (starting OD600=0.0002). Plates were then incubated at 25° C. in a humidified chamber for 40 hours. Each plate was shaken in a Beckman orbital shaker to resuspend settled cells, and the OD600 in each well was read by a Wallac Victor plate reader (Perkin Elmer).

The subject of series [1] is Δpdr5Δsnq2 strain overexpressing Erv1. Description: Yeast growth inhibition (MIC50), Δpdr5Δsnq2 strain overexpressing Erv1. In kind it is cell-based. As to conditions: Saccharomyces cerevisiae; Δpdr5Δsnq2 overexpressing Erv1 from high copy plasmid. The procedure: as §1
The test system of series [2] is tim10-1 tim9S suppressor strain. Description: Yeast growth inhibition (MIC50), tim10-1 tim9S suppressor strain. Type of series: cell-based. The conditions noted are these: Saccharomyces cerevisiae; disrupted for prd5 and snq2.
Series [3] deals with tim10-1 tim9S mitochondria. Kind of series: Membrane potential with rhodamine 123. Type of series: biochemical, yeast. As to conditions: 25 μM MitoBloCK-1; CCCP as control. The procedure: Membrane potential measurement assays were conducted with a SPEX spectrofluorometer system (HORIBA Jobin Yvon) with a magnetically stirred cuvette held at 25° C. The quenching of rhodamine 123 fluorescence (Em, =530 nm and Ex=485 nm) was used as previously described (9) to detect changes in mitochondrial membrane potential. Purified tim10-1 tim9S mitochondrial aliquots were thawed and resuspended in respiration buffer (0.65 M mannitol, 0.3 mM EGTA, 3 mm tris-phosphate, 10 mM tris-maleate, pH 6.75). Trials were started by adding 100 nM of rhodamine 123 to respiration buffer. After a period of signal stabilization, mitochondria were added to a concentration of 100 μg/mL. Either drug or DMSO was then added to a final vehicle concentration of 1% following the establishment of baseline quenched fluorescence. Finally, mitochondria were uncoupled with 3 μM CCCP.

The subject of another series is isogenic control (TIM10). Description: Yeast growth inhibition (MIC50), isogenic control (TIM10). In kind it is cell-based. The conditions noted are these: Saccharomyces cerevisiae. The protocol: A primary screen was performed using freshly streaked tim10-1 diluted in YPD to an OD600 of approximately 0.0002 and kept on ice throughout the screening run. A Titertek multidrop (Huntsville, Ala.) was used dispense 40 μL of cell suspension to all wells of each clear 384-well plate (Greiner Bio One). After yeast suspension warmed to room temperature, a Biomek FX (Beckman Coulter) was used to pin transfer 0.5 μL of compound from 1 mM stock or DMSO to respective wells. Approximate screening concentration was 12.5 μM. All operations were performed by an automated plate scheduler to ensure consistency across the screening run. After completed compound transfer, all plates were incubated at 25° C. in a humidified incubator until the OD600 reached approximately 0.8 in the control wells; the control consisted of the tim10-1 mutant with the vehicle 1% DMSO. Each plate was shaken in a Beckman orbital shaker to resuspend settled cells, and the OD600 in each well was read by a Wallac Victor plate reader (Perkin Elmer). The top 600 growth inhibitory compounds were determined and assembled into two plates. Using a similar screening methodology, hit compounds were reconfirmed with the tim10-1 strain and growth inhibition was compared to the WT strain (TIM10) as well as the “rescued” strain (tim10-1 TIM10 that contained a copy of the wild-type TIM10 genes on a centromeric plasmid) strains. […]

The term MIC50 denotes an inhibitory concentration at the 50% level, which refers to growth in some studies and to a panel of isolates in others. A lower MIC50 goes with greater potency.

As for `Oc1c(Cl)cc(Cl)cc1/C=N/c1ccc(Nc2ccccc2)cc1` [MitoBloCK-6], the “cell viability (MTT)” value with HeLa cells was “did not significantly reduce cell viability”. This compound gave a Tim13 oxidized on Erv1 of 15%. Moreover, the results for the MIC50 (against Δpdr5Δsnq2 yeast strain; in series [1]) were 15.2 µM (≈ 5.43 µg/mL) and 28.3 µM (≈ 10.1 µg/mL), respectively.

For `NC(=S)N/N=C/c1c(O)c(Br)cc2oc3c(c12)CCCC3` [MitoBloCK-1], the values for the MIC50 (in series [2]; against isogenic control (TIM10)) were 10 µM (≈ 3.68 µg/mL) and more than 200 µM, respectively. Further, the “rhodamine 123 fluorescence (membrane potential)” value in series [3] is “did not change”.
